Source: patent US9156856B2, “Apoptosis-inducing agents for the treatment of cancer and immune and autoimmune diseases” (AbbVie Inc., priority 2009, dated 2015)

These compounds were tested against Bcl-2 (Homo sapiens (Human), UniProt P10415) (assay: Time Resolved-Fluorescence Resonance Energy Transfer (TR-FRET) Bcl-2 binding assay with F-Bak peptide probe). Settings: GST-Bcl-2 1 nM, F-Bak peptide probe 100 nM, Tb-anti-GST antibody 1 nM; Ki by Wang's equation.
Description: Determination of the utility of compounds having Formula (I) as binders to and inhibitors of anti-apoptotic Bcl-2 proteins was performed using the Time Resolved-Fluorescence Resonance Energy Transfer (TR-FRET) Assay. Tb-anti-GST antibody was purchased from Invitrogen (Catalog No. PV4216).
Representative compounds were serially diluted in dimethyl sulfoxide (DMSO) starting at 50 μM (2× starting concentration; 10% DMSO) and 10 μL were transferred into a 384-well plate. The samples are then mixed on a shaker for 1 minute and incubated for an additional 3 hours at room temperature. For each assay, the probe/antibody and protein/probe/antibody were included on each assay plate as negative and positive controls, respectively. Fluorescence was measured on the ENVISION plate reader (Perkin Elmer) using a 340/35 nm excitation filter and 520/525 (F-Bak peptide) and 495/510 nm (Tb-labeled […] antibody) emission filters Inhibition constants (Ki) are shown in TABLE 2 below and were determined using Wang's equation (Wang Z.-X. An Exact Mathematical Expression For Describing Competitive Binding Of Two Different Ligands To A Protein Molecule. FEBS Lett. 1995, 360:111-4).
The inhibition constant (Ki) is the dissociation constant of an enzyme-inhibitor complex or a protein/small molecule complex, wherein the small molecule is inhibiting binding of one protein to another protein. So a large K, value indicates a low binding affinity and a small Ki value indicates a high binding affinity.
The compounds are therefore expected to have utility in treatment of diseases during which anti-apoptotic Bcl-2 protein is expressed.

Chain of Bcl-2 (P10415 whole entry): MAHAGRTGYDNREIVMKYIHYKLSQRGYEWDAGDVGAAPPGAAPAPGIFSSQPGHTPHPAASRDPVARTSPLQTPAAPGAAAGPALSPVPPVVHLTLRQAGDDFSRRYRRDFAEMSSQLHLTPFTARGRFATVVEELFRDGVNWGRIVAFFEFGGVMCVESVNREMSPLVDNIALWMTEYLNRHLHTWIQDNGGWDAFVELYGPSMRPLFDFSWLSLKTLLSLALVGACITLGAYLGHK

Row | Structure (SMILES) | Ki
1 | CCC(CC)NC(=O)c1nnc(S(=O)(=O)NC(=O)c2ccc(N3CCN(Cc4ccccc4-c4ccc(Cl)cc4)CC3)cc2)s1 [Example 28, 5-{[(4-{4-[(4′-chloro-1,1′-biphenyl-2-yl)methyl]piperazin-1-yl}benzoyl)amino]sulfonyl}-N-(1-ethylpropyl)-1,3,4-thiadiazole-2-carboxamide] | 417 nM
2 | Cc1nn(C)c(Cl)c1S(=O)(=O)NC(=O)c1ccc(N2CCN(Cc3ccccc3-c3ccc(Cl)cc3)CC2)cc1 [Example 29, 4-{4-[(4′-chloro-1,1′-biphenyl-2-yl)methyl]piperazin-1-yl}-N-[(5-chloro-1,3-dimethyl-1H-pyrazol-4-yl)sulfonyl]benzamide] | 340 nM
3 | O=C(NS(=O)(=O)c1cc([N+](=O)[O-])c(N2CCCCC2)s1)c1ccc(N2CCN(Cc3ccccc3-c3ccc(Cl)cc3)CC2)cc1 [Example 30, 4-{4-[(4′-chloro-1,1′-biphenyl-2-yl)methyl]piperazin-1-yl}-N-[(4-nitro-5-piperidin-1-ylthien-2-yl)sulfonyl]benzamide] | 269 nM
4 | O=C(NS(=O)(=O)c1ccc(-c2ccno2)o1)c1ccc(N2CCN(Cc3ccccc3-c3ccc(Cl)cc3)CC2)cc1 [Example 31, 4-{4-[(4′-chloro-1,1′-biphenyl-2-yl)methyl]piperazin-1-yl}-N-[(5-isoxazol-5-yl-2-furyl)sulfonyl]benzamide] | 139 nM
5 | Cc1noc(C)c1S(=O)(=O)NC(=O)c1ccc(N2CCN(Cc3ccccc3-c3ccc(Cl)cc3)CC2)cc1 [Example 32, 4-{4-[(4′-chloro-1,1′-biphenyl-2-yl)methyl]piperazin-1-yl}-N-[(3,5-dimethylisoxazol-4-yl)sulfonyl]benzamide] | 438 nM
6 | CC1(C)CCC(CN2CCN(c3ccc(C(=O)NS(=O)(=O)c4cc([N+](=O)[O-])c(NCCCN5CCCC5)s4)c(Oc4ccc5[nH]ccc5c4)c3)CC2)=C(c2ccc(Cl)cc2)C1 [Example 33, 4-(4-{[2-(4-chlorophenyl)-4,4-dimethylcyclohex-1-en-1-yl]methyl}piperazin-1-yl)-2-(1H-indol-5-yloxy)-N-({4-nitro-5-[(3-pyrrolidin-1-ylpropyl)amino]thien-2-yl}sulfonyl)benzamide] | 0.649 nM
7 | CN(C)CCCNc1sc(S(=O)(=O)NC(=O)c2ccc(N3CCN(CC4=C(c5ccc(Cl)cc5)CC(C)(C)CC4)CC3)cc2Oc2ccc3[nH]ccc3c2)cc1[N+](=O)[O-] [Example 34, 4-(4-{[2-(4-chlorophenyl)-4,4-dimethylcyclohex-1-en-1-yl]methyl}piperazin-1-yl)-N-[(5-{[3-(dimethylamino)propyl]amino}-4-nitrothien-2-yl)sulfonyl]-2-(1H-indol-5-yloxy)benzamide] | 1.79 nM
8 | CC1(C)CCC(CN2CCN(c3ccc(C(=O)NS(=O)(=O)c4cc([N+](=O)[O-])c(NCCCN5CCOCC5)s4)c(Oc4ccc5[nH]ccc5c4)c3)CC2)=C(c2ccc(Cl)cc2)C1 [Example 35, 4-(4-{[2-(4-chlorophenyl)-4,4-dimethylcyclohex-1-en-1-yl]methyl}piperazin-1-yl)-2-(1H-indol-5-yloxy)-N-({5-[(3-morpholin-4-ylpropyl)amino]-4-nitrothien-2-yl}sulfonyl)benzamide] | 2.07 nM
9 | CN(C)CC[C@H](CSc1ccccc1)Nc1sc(S(=O)(=O)NC(=O)c2ccc(N3CCC(=Cc4ccccc4C(F)(F)F)CC3)cc2)cc1[N+](=O)[O-] [Example 36, N-{[5-({(1R)-3-(dimethylamino)-1-[(phenylthio)methyl]propyl}amino)-4-nitrothien-2-yl]sulfonyl}-4-{4-[2-(trifluoromethyl)benzylidene]piperidin-1-yl}benzamide] | 294 nM
10 | Cc1c(S(=O)(=O)NC(=O)c2ccc(N3CCN(Cc4ccccc4-c4ccc(Cl)cc4)CC3)cc2Oc2ccccc2)sc2ccc(Cl)cc12 [Example 39, 4-{4-[(4′-chloro-1,1′-biphenyl-2-yl)methyl]piperazin-1-yl}-N-[(5-chloro-3-methyl-1-benzothien-2-yl)sulfonyl]-2-phenoxybenzamide] | 20.2 nM
11 | Cc1cc(C)n2nc(S(=O)(=O)NC(=O)c3ccc(N4CCN(CC5=C(c6ccc(Cl)cc6)CC(C)(C)CC5)CC4)cc3Oc3cccc(Cl)c3)nc2n1 [Example 40, 2-(3-chlorophenoxy)-4-(4-{[2-(4-chlorophenyl)-4,4-dimethylcyclohex-1-en-1-yl]methyl}piperazin-1-yl)-N-[(5,7-dimethyl[1,2,4]triazolo[1,5-a]pyrimidin-2-yl)sulfonyl]benzamide] | 0.407 nM
12 | Cc1cc(C)n2nc(S(=O)(=O)NC(=O)c3ccc(N4CCN(CC5=C(c6ccc(Cl)cc6)CC(C)(C)CC5)CC4)cc3Oc3cc4cc[nH]c4cc3F)nc2n1 [Example 41, 4-(4-{[2-(4-chlorophenyl)-4,4-dimethylcyclohex-1-en-1-yl]methyl}piperazin-1-yl)-N-[(5,7-dimethyl[1,2,4]triazolo[1,5-a]pyrimidin-2-yl)sulfonyl]-2-[(6-fluoro-1H-indol-5-yl)oxy]benzamide] | 0.053 nM
13 | Cc1cc(C)n2nc(S(=O)(=O)NC(=O)c3ccc(N4CCN(CC5=C(c6ccc(Cl)cc6)CC(C)(C)CC5)CC4)cc3Oc3cc4cc[nH]c4c(F)c3F)nc2n1 [Example 42, 4-(4-{[2-(4-chlorophenyl)-4,4-dimethylcyclohex-1-en-1-yl]methyl}piperazin-1-yl)-2-[(6,7-difluoro-1H-indol-5-yl)oxy]-N-[(5,7-dimethyl[1,2,4]triazolo[1,5-a]pyrimidin-2-yl)sulfonyl]benzamide] | 0.039 nM
14 | Cc1nc(OC[C@@H]2CN(C(=O)OC(C)(C)C)CCO2)sc1S(=O)(=O)NC(=O)c1ccc(N2CCN(CC3=C(c4ccc(Cl)cc4)CC(C)(C)CC3)CC2)cc1Oc1cnc2[nH]ccc2c1 [Example 43, tert-butyl (2S)-2-{[(5-{[4-(4-{[2-(4-chlorophenyl)-4,4-dimethylcyclohex-1-en-1-yl]methyl}piperazin-1-yl)-2-(1H-pyrrolo[2,3-b]pyridin-5-yloxy)benzoyl]sulfamoyl}-4-methyl-1,3-thiazol-2-yl)oxy]methyl}morpholine-4-carboxylate] | 46.5 nM
15 | Cc1nc(OC[C@@H]2CN(C(=O)OC(C)(C)C)CCO2)sc1S(=O)(=O)NC(=O)c1ccc(N2CCN(CC3=C(c4ccc(Cl)cc4)CC(C)(C)CC3)CC2)cc1Oc1cccc2[nH]cnc12 [Example 44, tert-butyl (2S)-2-{[(5-{[2-(1H-benzimidazol-4-yloxy)-4-(4-{[2-(4-chlorophenyl)-4,4-dimethylcyclohex-1-en-1-yl]methyl}piperazin-1-yl)benzoyl]sulfamoyl}-4-methyl-1,3-thiazol-2-yl)oxy]methyl}morpholine-4-carboxylate] | 24.8 nM
16 | Cc1nc(OCC2(F)CCOCC2)sc1S(=O)(=O)NC(=O)c1ccc(N2CCN(CC3=C(c4ccc(Cl)cc4)CC(C)(C)CC3)CC2)cc1Oc1cnc2[nH]ccc2c1 [Example 45, 4-(4-{[2-(4-chlorophenyl)-4,4-dimethylcyclohex-1-en-1-yl]methyl}piperazin-1-yl)-N-({2-[(4-fluorotetrahydro-2H-pyran-4-yl)methoxy]-4-methyl-1,3-thiazol-5-yl}sulfonyl)-2-(1H-pyrrolo[2,3-b]pyridin-5-yloxy)benzamide] | 6.73 nM
17 | Cc1nc(OCC2(F)CCOCC2)sc1S(=O)(=O)NC(=O)c1ccc(N2CCN(CC3=C(c4ccc(Cl)cc4)CC(C)(C)CC3)CC2)cc1Oc1cccc2[nH]cnc12 [Example 46, 2-(1H-benzimidazol-4-yloxy)-4-(4-{[2-(4-chlorophenyl)-4,4-dimethylcyclohex-1-en-1-yl]methyl}piperazin-1-yl)-N-({2-[(4-fluorotetrahydro-2H-pyran-4-yl)methoxy]-4-methyl-1,3-thiazol-5-yl}sulfonyl)benzamide] | 1.75 nM
18 | Cc1nc(OC[C@@H]2CN(C(=O)OC(C)(C)C)CCO2)sc1S(=O)(=O)NC(=O)c1ccc(N2CCN(CC3=C(c4ccc(Cl)cc4)CC(C)(C)CC3)CC2)cc1Oc1cccc2[nH]ncc12 [Example 47, (S)-tert-butyl 2-((5-(N-(2-(1H-indazol-4-yloxy)-4-(4-((2-(4-chlorophenyl)-4,4-dimethylcyclohex-1-enyl)methyl)piperazin-1-yl)benzoyl)sulfamoyl)-4-methylthiazol-2-yloxy)methyl)morpholine-4-carboxylate] | 20.4 nM
19 | Cc1nc(OCC2(F)CCOCC2)sc1S(=O)(=O)NC(=O)c1ccc(N2CCN(CC3=C(c4ccc(Cl)cc4)CC(C)(C)CC3)CC2)cc1Oc1cccc2[nH]ncc12 [Example 48, 2-(1H-indazol-4-yloxy)-4-(4-((2-(4-chlorophenyl)-4,4-dimethylcyclohex-1-enyl)methyl)piperazin-1-yl)-N-(2-((4-fluorotetrahydro-2H-pyran-4-yl)methoxy)-4-methylthiazol-5-ylsulfonyl)benzamide] | 1.64 nM
